From patent publication EP4666996A1, “COMPOSITION CONTAINING PEPTIDES OF VEGETABLE ORIGIN” (Quiris Healthcare GmbH & Co. KG, priority 2024, dated 2025)
Read-outs that look alike come from different tables or passages of the source. No end group written: not given here.

How the values were obtained:
BJ-5ta cells = experiment: Cell viability assay (MTT); type: cell-based
Method: (§1) Fibroblast cells (BJ-5ta, CRL-4001) were cultured in complete medium, a 4:1 mixture of Dulbecco's medium and Medium 199 with supplements as 4 parts of Dulbecco's Modified Eagle's Medium containing 4 mM L-glutamine, 4.5 g/L glucose and 1.5 g/L sodium bicarbonate, 1 part of Medium 199 supplemented with 0.01 mg/mL hygromycin B 10% fetal bovine serum with incubation at 37 °C under 5% CO2 atmosphere.
A total of 10^4 fibroblasts/well were seeded in 96-well plates and treated with pea, rice and collagen peptides (from 1 to 20 mg/mL) and ascorbic acid (from 0.1 to 10 mg/mL), CR1, CR2, CP1, CP2, CP3, CP4 and CP5 peptides (from 25 to 500 µM) or H2O2 (from 0.1 to 1 mg/mL) or vehicle (H2O) in complete growth media for 48 h at 37 °C under 5% CO2 atmosphere. Subsequently, the treatment solvent was aspirated and 100 µL/well of 3-(4,5-dimethylthiazol-2-yl)-2,5-diphenyltetrazolium bromide (MTT) filtered solution added. After 2 h of incubation at 37 °C under 5% CO2 atmosphere, 0.5 mg/mL solution was aspirated and 100 µL/well of the lysis buffer (8 mM HCl + 0.5% NP-40 in DMSO) added. After 10 min of slow shaking, the absorbance at 575 nm was read on the Synergy H1 fluorescence plate reader (Biotek, Bad Friedrichshall, Germany).
In this example, the effect of pea and rice peptides was tested on BJ-5ta cells in a modified MTT assay as described above. […]

ABTS assay = type: biochemical
Method: The ABTS assay is based on the reduction of the 2,2-azino-bis-(3-ethylbenzothiazoline-6-sulfonic acid (ABTS) radical induced by antioxidants. The ABTS radical cation (ABTS+● was prepared by mixing a 7 mM ABTS solution (Sigma-Aldrich, Milan, Italy) with 2.45 mM potassium persulfate (1:1) and stored for 16 h at room temperature and in dark. To prepare the ABTS reagent, the ABTS+● was diluted in 5 mM phosphate buffer (pH 7.4) to obtain a stable absorbance of 0.700 (±0.02) at 730 nm. For the assay, 10 µL of samples were added to 140 µL of diluted the ABTS+● at the following final concentrations: 0.01 and 0.1 mg/mL for pea and rice peptides; 0.1, 1, 10 and 20 mg/mL for collagen peptides; 0.0001, 0.001 and 0.01 mg/mL for ascorbic acid; 1, 10, 25, 50, 100 µM for CR1, CP1 and CP2 peptides. The microplate was incubated for 30 min at 30 °C and the absorbance was read at 730 nm using a Synergy™ HT-multimode microplate reader (Biotek Instruments, Winooski, VT, USA). The TEAC values were calculated using a Trolox (Sigma-Aldrich, Milan, Italy) calibration curve (60-320 µM).
In this example, the antioxidant activity of pea and rice peptides was tested in vitro in an ABTS Assay as described above.
In this example, the antioxidant activity of peptides CP1, CP2 and CR1 (see Table 1 above) was tested in vitro in an ABTS Assay as described above.

FRAP assay [1] = type: biochemical; details: pea and rice peptides 0.01-1 mg/mL; collagen 1-20 mg/mL; ascorbic acid 0.00001-0.1 mg/mL
Caco-2 cells [2] = experiment: Trans-epithelial transport of digested and non-digested hydrolysates, LC-MS/MS of AP and BL samples; details: without H2O2; for common sequences in BL rice digested vs. BL rice not digested samples: rice hydrolysates; for common sequences in AP pea digested vs. BL pea digested samples: digested pea hydrolysate; for detection in the AP pea and BL pea samples: non-digested pea hydrolysate
Method: (§5) Caco-2 cells, obtained from INSERM (Paris, France) were routinely sub-cultured at 50% confluence and maintained at 37°C in a 5% CO2 atmosphere in DMEM containing 25 mM of glucose, 3.7 g/L of NaHCOs, 4 mM of stable L-glutamine, 1% non-essential amino acids, 100 U/L of penicillin and 100 µg/L of streptomycin (complete medium), supplemented with 10% heat-inactivated FBS. To facilitate the establishment of a confluent cell monolayer, cells were seeded on a Transwell at a density of 3.5 × 10^5 cells/cm^2 in complete medium supplemented with 10% FBS in both the AP and BL compartments for a period of 2 days. Cells were seeded, and on day three, they were moved to an FBS-free medium in the AP compartment. They were then allowed to differentiate for 18-21 days, with three weekly medium changes in between. Transepithelial electrical resistance (TEER) of differentiated Caco-2 cells was measured at 37 °C using the Millicell voltmeter device (Millipore Co., Billerica, MA, USA) both before and after the transport experiments for monitoring the integrity of the cell monolayers.
(§6) TEER measurement was used to verify the integrity and differentiation of the cell monolayer prior to transport experiments. Pea and rice peptides trans-epithelial transit was assessed in differentiated Caco-2 cells in transport buffer solution (137 mM NaCl, 5.36 mM KCl, 1.26 mM CaCl2, and 1.1 mM MgCl2, 5.5 mM glucose). The apical (AP) solutions were kept at pH 6.0 (buffered with 10 mM morpholinoethane sulfonic acid) and the basolateral (BL) solutions were kept at pH 7.4 (buffered with 10 mM N-2-hydroxyethylpiperazine-N-4-butanesulfonic acid) in order to replicate the pH conditions found in vivo in the small intestinal mucosa. Before the transport assay, cells were equilibrated in HBSS for 15 minutes at 37°C. In the AP compartment with the AP transport solution (500 µL) and the BL compartment with the BL transport solution (700 µL), rice and pea (5 mg/mL) were added. All BL and AP solutions were collected after two hours of absorption experiment carried out at 37°C, and they were kept at - 80°C before analysis. Transport experiments were performed in duplicate.
(§7) The enzymatic hydrolysis of pea and rice peptides was performed using pepsin and trypsin to simulate gastrointestinal digestion. For pepsin and trypsin digestion, the pH of the solution was adjusted to pH 2 and 8, respectively, by adding 1 M HCl or 1 M NaOH. The pepsin and trypsin solutions were added to the solution at a 1:100 (w/w) E/S ratio. After 60 min of peptic digestion at 37°C, pepsin was inactivated by adjusting the pH to 8; whereas the tryptic digestion (15 minutes) was blocked by heating the solution at 95 °C for 5 min (Lo et al., 2005). Collagen, pea and rice hydrolysates were passed through ultrafiltration membranes for the complete enzymes removal, using a Millipore UF system (Millipore, Bedford, MA, USA). Recovered peptides were lyophilized and stored at -80 °C for high-resolution LC-MS/MS analysis.

Caco-2 cells [3] = test system: Caco-2 cells
Method: as §5, §6, §7

FRAP assay [4] = type: biochemical; details: synthesized peptides up to 200 µM
Method: The FRAP assay evaluates the ability of a sample to reduce ferric ion (Fe3^+) into ferrous ion (Fe2^+). Thus, 10 µL of samples were mixed with 140 µL of FRAP reagent until reaching the following concentrations: 0.01, 0.1 and 1 mg/mL for pea and rice peptides; 1, 10 and 20 mg/mL for collagen peptides; 0.00001, 0.0001, 0.001 and 0.1 mg/mL for ascorbic acid; 10, 100 and 200 µM for CR1 and CP5 peptides; 25, 50, 100 and 200 µM for CP1 and CP2 peptides. The FRAP reagent was prepared by mixing 1.3 mL of a 10 mM TPTZ (Sigma-Aldrich, Milan, Italy) solution in 40 mM HCl, 1.3 mL of 20 mM FeCl3 × 6H2O and 13 mL of 0.3 M acetate buffer (pH 3.6). The microplate was incubated for 30 min at 37 °C and the absorbance was read at 595 nm. The results were calculated by a Trolox (Sigma-Aldrich, Milan, Italy) standard curve obtained using different concentrations (3-400 µM)). Absorbances were recorded on a Synergy™ HT-multimode microplate reader.
In this example, the antioxidant activity of pea and rice peptides was tested in vitro in a FRAP Assay as described above.
In this example, the antioxidant activity of peptides CP1, CP2, CP5 and CR1 was tested in vitro in a FRAP Assay as described above.

collagen [5] = experiment: ELISA assay, collagen secretion; type: cell-based, human; details: peptides of Table 1, BJ-5ta cells
Method: (§2) Cytokines, metalloproteases, collagen and elastin quantification was performed using human Authentikine® ELISA kits (Proteintech, Rosemont, USA) and Cusabio ELISA kits (Houston, TX, USA) according to the manufacturer's instruction and. Briefly, the supernatants collected from treated and H20-stimulated bj-5ta cells were centrifuged at 13,300 × g for 10 minutes at 4°C, then the pellet and insoluble material were discarded. For the experiments, 100 µL of samples were added to each well and the microplate was incubated for 2 hours at 37°C. After the incubation, the solutions were discarded and each well washed 4 times with 300 µL of Wash Buffer solution, then 100 µL of Detection antibody solution were added to each well and the microplate was incubated for 1 hours at 37°C. […] After 4 washes, the TMB substrate (100 µL/well) was added and reactions were stopped after 20 min with 50 µL of Stop Solution and the absorbance at 450 and 540 nm was measured using the Synergy H1 plate reader (BioTek Instruments).
(§3) In this example, the secretion of collagen and elastin with pea and rice peptides was tested in vitro by an ELISA assay as described above. Thereby, ECM stability is evaluated.
(§4) In this example, the secretion of collagen and elastin with the peptides of Table 1 was tested in vitro by an ELISA assay as described above. Thereby, ECM stability is evaluated.

elastin [6] = experiment: ELISA assay, elastin secretion; type: cell-based, human
Method: as §2, §3, §4

collagen [7] = experiment: Western blot analysis, collagen protein level; type: cell-based
Method: as §1
A total of 2.2 × 10^5 BJ-5ta cells/well were seeded on 24-well plates and incubated at 37 °C under a 5% CO2 atmosphere. The following day, cells were treated with pea, rice and collagen peptides (5 mg/mL), CR1, CR2, CP1, CP4 and CP5 (250 and 500 µM), CP2 (100, 250 and 500 µM) or vehicle (H2O) in a complete growth medium for 24 h. The day after, cells were stimulated with H2O2 (200 µM) or vehicle (H2O) for 1 h. […] Total proteins were quantified by Bradford method and 50 µg of total proteins loaded on a precast 7.5% Sodium Dodecyl Sulfate - Polyacrylamide (SDS-PAGE) gel at 130 V for 45 min. […] Target proteins, on milk or BSA blocked membrane, were detected by primary antibodies as follows: anti-collagen, anti-elastin, anti-phospho(Thr172)-AMPK, anti-phospho(Ser473)-Akt, anti-NF-κB and anti-β-actin. Secondary antibodies conjugated with HRP and a chemiluminescent reagent were used to visualize target proteins and their signal was quantified using the Image Lab Software (Biorad). […]

elastin [8] = experiment: Western blot analysis, elastin protein level; type: cell-based
Method: as §1
A total of 2.2 × 10^5 BJ-5ta cells/well were seeded on 24-well plates and incubated at 37 °C under a 5% CO2 atmosphere. The following day, cells were treated with pea, rice and collagen peptides (5 mg/mL), CR1, CR2, CP1, CP4 and CP5 (250 and 500 µM), CP2 (100, 250 and 500 µM) or vehicle (H2O) in a complete growth medium for 24 h. The day after, cells were stimulated with H2O2 (200 µM) or vehicle (H2O) for 1 h. After each treatment, cells were scraped in 30 µL ice-cold lysis buffer [RIPA buffer + inhibitor cocktail + 1:100 PMSF + 1:100 Na-orthovanadate] and transferred in an ice-cold microcentrifuge tube. After centrifugation at 13.300g for 15 min at 4 °C, the supernatant was recovered and transferred into a new ice-cold tube. Total proteins were quantified by Bradford method and 50 µg of total proteins loaded on a precast 7.5% Sodium Dodecyl Sulfate - Polyacrylamide (SDS-PAGE) gel at 130 V for 45 min. Subsequently, the gel was pre-equilibrated with 0.04% SDS in H2O for 15 min at RT and transferred to a nitrocellulose membrane (Mini nitrocellulose Transfer Packs,) using a trans-Blot Turbo at 1.3 A, 25 V for 7 min. Target proteins, on milk or BSA blocked membrane, were detected by primary antibodies as follows: anti-collagen, anti-elastin, anti-phospho(Thr172)-AMPK, anti-phospho(Ser473)-Akt, anti-NF-κB and anti-β-actin. Secondary antibodies conjugated with HRP and a chemiluminescent reagent were used to visualize target proteins and their signal was quantified using the Image Lab Software (Biorad). The internal control β-actin was used to normalize loading variations. […]

[9] = 250 µM, screening among CR1, CR2, CP1, CP2, CP4, CP5
[10] = 500 µM, among CR1, CR2, CP1, CP2, CP4, CP5

OO [H2O2]
concentration up to which no cytotoxic effects (BJ-5ta cells; skin fibroblasts exposed to increasing concentration of H2O2): ≤ 400 µM

O=C1O[C@H]([C@@H](O)CO)C(O)=C1O [ascorbic acid]
ABTS radical scavenging activity, dependence on concentration (ABTS assay; pea and rice peptides 0.01 and 0.1 mg/mL, collagen 0.1-20 mg/mL, ascorbic acid 0.0001-0.01 mg/mL): decreasing radical scavenging activity with increasing concentration
concentrations with effects on cellular viability (BJ-5ta cells; BJ-5ta cells, 48 h): more than 1 mg/mL
ferric reducing antioxidant power, dependence on concentration (FRAP assay [1]): increase

AEDVGEEVER [CR1, AEDVGEEVER]
common sequences in BL rice digested vs. BL rice not digested samples (Caco-2 cells [2]): found

AGFAGDDAPR [CR2, AGFAGDDAPR]
common sequences in BL rice digested vs. BL rice not digested samples (Caco-2 cells [3]): found

DWLLGATGTGK (DVVLLGATGTGK; listed as Oryza sativa) [CR3]
common sequences in BL rice digested vs. BL rice not digested samples (Caco-2 cells [2]): found

DWPEWVR [CP2, synthesized pea peptide]
ferric reducing antioxidant power compared with CR1 (FRAP assay [4]): higher than with CR1
ferric reducing antioxidant power, dependence on concentration (FRAP assay [4]): increases with increasing concentration
ferric reducing antioxidant power (FRAP assay [4]; compared to control C): higher than the control C
ABTS radical scavenging activity compared with CR1 (ABTS assay; synthesized peptides 1-100 µM): lower than with CR1
ABTS radical scavenging activity, dependence on concentration (ABTS assay; synthesized peptides 1-100 µM): decreases with increasing concentration
ABTS radical scavenging activity (ABTS assay; synthesized peptides 1-100 µM, compared to control C): lower than the one of the control C
common sequences in AP pea digested vs. BL pea digested samples (Caco-2 cells [2]): found
detection in the AP pea and BL pea samples (Caco-2 cells [2]): detected
stimulation of collagen secretion (collagen [5]): strongest stimulation of collagen secretion
stimulation of elastin secretion (elastin [6]; CP2 at 100 µM versus other peptides at 500 µM): higher than for the other tested peptides at a concentration of 500 µM
stimulation of elastin secretion (elastin [6]; peptides of Table 1, BJ-5ta cells): strongest stimulation of elastin secretion
modulation of collagen protein level (collagen [7]; [9]): highest modulation of collagen protein level
modulation of collagen protein level (collagen [7]; [10]): highest modulation of collagen protein level
modulation of elastin protein level (elastin [8]; [9]): highest modulation of elastin protein level
modulation of elastin protein level compared to CP4 and CP5 (elastin [8]; 500 µM): higher modulation of elastin protein level compared to CP4 and CP5
modulation of elastin protein level (elastin [8]; [10]): highest modulation of elastin protein level

ENIADAAR [CP3, ENIADAAR]
common sequences in AP pea digested vs. BL pea digested samples (Caco-2 cells [2]): found
detection in the AP pea and BL pea samples (Caco-2 cells [2]): detected

GSRQEEEEDEDEERQPR [CP4, GSRQEEEEDEDEERQPR]
common sequences in AP pea digested vs. BL pea digested samples (Caco-2 cells [2]): found
detection in the AP pea and BL pea samples (Caco-2 cells [2]): detected

SEQ-ID:2: peptide identified by MS in pea hydrolysate; sequence not printed in the text (DTSETWAIR; listed as Pisum sativum)
common sequences in AP pea digested vs. BL pea digested samples (Caco-2 cells [2]): found
detection in the AP pea and BL pea samples (Caco-2 cells [2]): detected

SEQ-ID:12: peptide identified by MS in pea hydrolysate; sequence not printed in the text (SSNNQLDQMPR; listed as Pisum sativum)
common sequences in AP pea digested vs. BL pea digested samples (Caco-2 cells [2]): found
detection in the AP pea and BL pea samples (Caco-2 cells [2]): detected

SEQ-ID:15: peptide identified by MS in pea hydrolysate; sequence not printed in the text (LDEAAEPAALER; listed as Pisum sativum)
common sequences in AP pea digested vs. BL pea digested samples (Caco-2 cells [2]): found

SEQ-ID:35: peptide identified by MS in pea hydrolysate; sequence not printed in the text (SVFNGEVR; listed as Pisum sativum)
common sequences in AP pea digested vs. BL pea digested samples (Caco-2 cells [2]): found
